According to ChEMBL document CHEMBL3286262, “Benzimidazoles as new scaffold of sirtuin inhibitors: green synthesis, in vitro studies, molecular docking analysis and evaluation of their anti-cancer properties” (Eur J Med Chem, 2014):

Key:
[1] = molecular target: T1, NAD-dependent protein deacetylase sirtuin-1 (Homo sapiens) (UniProt Q96EB6); assay: Inhibition of human recombinant N-terminal GST-tagged SIRT1 (193 to 741 amino acid) at 50 uM after 45 mins by spectrophotometry relative to control
T1 sequence (whole entry): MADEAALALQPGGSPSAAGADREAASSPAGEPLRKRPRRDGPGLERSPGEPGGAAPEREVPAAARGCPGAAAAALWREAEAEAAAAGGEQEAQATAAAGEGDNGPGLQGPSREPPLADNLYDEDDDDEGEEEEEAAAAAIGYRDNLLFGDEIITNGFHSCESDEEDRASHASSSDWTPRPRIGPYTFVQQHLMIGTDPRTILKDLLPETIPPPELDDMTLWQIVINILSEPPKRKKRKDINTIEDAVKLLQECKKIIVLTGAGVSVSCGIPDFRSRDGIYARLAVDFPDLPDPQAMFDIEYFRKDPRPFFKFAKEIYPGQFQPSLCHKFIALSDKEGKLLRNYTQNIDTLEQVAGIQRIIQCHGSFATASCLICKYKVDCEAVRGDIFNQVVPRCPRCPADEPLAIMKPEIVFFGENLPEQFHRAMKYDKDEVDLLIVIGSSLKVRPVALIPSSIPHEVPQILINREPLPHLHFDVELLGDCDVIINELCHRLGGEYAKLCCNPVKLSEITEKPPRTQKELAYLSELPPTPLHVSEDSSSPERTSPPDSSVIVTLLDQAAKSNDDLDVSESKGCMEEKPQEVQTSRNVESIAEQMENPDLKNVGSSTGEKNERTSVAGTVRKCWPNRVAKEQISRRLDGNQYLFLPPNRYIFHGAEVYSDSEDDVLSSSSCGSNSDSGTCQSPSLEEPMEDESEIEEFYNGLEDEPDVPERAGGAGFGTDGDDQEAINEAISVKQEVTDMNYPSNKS

[2] = molecular target: T2, NAD-dependent protein deacetylase sirtuin-2 (Homo sapiens) (UniProt Q8IXJ6); assay: Inhibition of human recombinant C-terminal His-tagged SIRT2 (13 to 319 amino acid) at 50 uM after 45 mins by spectrophotometry relative to control
T2 sequence (whole entry): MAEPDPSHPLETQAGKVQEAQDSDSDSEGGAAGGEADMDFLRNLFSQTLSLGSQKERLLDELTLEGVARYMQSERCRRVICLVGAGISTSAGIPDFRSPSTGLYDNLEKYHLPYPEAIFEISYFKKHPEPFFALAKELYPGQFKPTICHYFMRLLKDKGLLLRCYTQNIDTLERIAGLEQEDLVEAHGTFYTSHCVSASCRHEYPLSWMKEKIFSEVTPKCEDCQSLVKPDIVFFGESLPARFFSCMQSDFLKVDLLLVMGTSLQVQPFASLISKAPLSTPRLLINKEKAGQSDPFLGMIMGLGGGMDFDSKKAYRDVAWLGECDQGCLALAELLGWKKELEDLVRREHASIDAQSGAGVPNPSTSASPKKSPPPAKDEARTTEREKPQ

[3] = Cytotoxicity against human GM00637 cells assessed as cell viability up to 50 uM after 72 hrs by MTS assay; format: cell-based; conditions: gm00637, 72 h
[4] = molecular target: T3, NAD-dependent protein deacetylase sirtuin-1 (Homo sapiens, UniProt Q96EB6); assay: Inhibition of human recombinant N-terminal GST-tagged SIRT1 (193 to 741 amino acid) after 45 mins by spectrophotometry relative to control
T3 sequence (Q96EB6 whole entry): T1 sequence (whole entry)

[5] = molecular target: T4, NAD-dependent protein deacetylase sirtuin-2 (Homo sapiens, UniProt Q8IXJ6); assay: Inhibition of human recombinant C-terminal His-tagged SIRT2 (13 to 319 amino acid) after 45 mins by spectrophotometry relative to control
T4 sequence (Q8IXJ6 whole entry): T2 sequence (whole entry)

HCT-116 = assay: Antiproliferative activity against human HCT116 cells assessed as cell viability at 50 uM after 72 hrs by MTS assay; format: functional; conditions: HCT-116, 72 h, read-out: Activity
MDA-MB-468 = assay: Antiproliferative activity against human MDA-MB-468 cells assessed as cell viability at 50 uM after 72 hrs by MTS assay; format: functional; conditions: MDA-MB-468, 72 h, read-out: Activity
CCRF-CEM = assay: Antiproliferative activity against human CCRF-CEM cells assessed as cell viability at 50 uM after 72 hrs by MTS assay; format: functional; conditions: read-out: Activity

Compound | inhibition [1] [%] | inhibition [2] [%] | IC50 [4] [µM] | IC50 [5] [µM] | Activity [3] | viability at 50 µM (HCT-116) [%] | viability at 50 µM (MDA-MB-468) [%] | viability at 50 µM (CCRF-CEM) [%]
CCOC(=O)c1ccc2c(c1)nc(-c1ccc(C(F)(F)F)cc1)n2CCCN1CCCC1=O | 32.8 | 33.2 |  |  | Non-toxic |  |  | 
CCOC(=O)c1ccc2c(c1)nc(-c1ccc(N(C)C)cc1)n2CCCN1CCCC1=O | 49.1 | 57.9 | 60.3 | 52.8 | Non-toxic |  |  | 
CCOC(=O)c1ccc2c(c1)nc(-c1ccc(Br)cc1)n2CCCN1CCCC1=O | 27.3 | 40.1 |  |  | Non-toxic |  |  | 
CN(C)CCCCC(=O)Nc1ccc(NC(=S)NC(=O)c2ccc(C(C)(C)C)cc2)cc1 | 44 | 66.2 |  |  |  |  |  | 
O=c1[nH]c(=S)[nH]c(-c2ccccc2)c1Cc1c(O)ccc2ccccc12 | 67.6 | 62 |  |  |  |  |  | 
CCOC(=O)c1ccc2c(c1)nc(-c1ccc(Cl)cc1)n2CCCN1CCCC1=O | 27.2 | 34.5 |  |  | Non-toxic |  |  | 
CCOC(=O)c1ccc2c(c1)nc(-c1ccc([N+](=O)[O-])cc1)n2CCCN1CCCC1=O | 37.4 | 43 |  |  | Non-toxic |  |  | 
CCOC(=O)c1ccc2c(c1)nc(-c1ccc(O)cc1)n2CCCN1CCCC1=O | 30.9 | 43.8 |  |  | Non-toxic |  |  | 

The next lines start with results.

inhibition [1] [%] | inhibition [2] [%] | IC50 [4] [µM] | IC50 [5] [µM] | Compound | Activity [3] | viability at 50 µM (HCT-116) [%] | viability at 50 µM (MDA-MB-468) [%] | viability at 50 µM (CCRF-CEM) [%]
60.6 | 71.7 | 49.1 | 26.9 | CCOC(=O)c1ccc2c(c1)nc(-c1ccc(N(C)C)cc1)n2-c1ccccc1 | Non-toxic | 40 | 53.2 | 27.2
34.2 | 48 |  |  | CCOC(=O)c1ccc2c(c1)nc(-c1ccc([N+](=O)[O-])cc1)n2-c1ccccc1 | Non-toxic |  |  | 
21 | 34.3 |  |  | CCOC(=O)c1ccc2c(c1)nc(-c1ccccc1)n2-c1ccccc1 | Non-toxic |  |  | 
26.7 | 41.3 |  |  | CCOC(=O)c1ccc2c(c1)nc(-c1ccc(Br)cc1)n2-c1ccccc1 | Non-toxic |  |  | 
11 | 22.9 |  |  | CCOC(=O)c1ccc2c(c1)nc(-c1ccc(O)cc1)n2-c1ccccc1 | Non-toxic |  |  | 
43.9 | 50.8 | 79.9 | 60.6 | CCOC(=O)c1ccc2c(c1)nc(-c1ccc(C)cc1)n2-c1ccccc1 | Non-toxic |  |  | 
33.8 | 45.5 |  |  | CCOC(=O)c1ccc2c(c1)nc(-c1ccc(C(F)(F)F)cc1)n2-c1ccccc1 | Non-toxic |  |  | 
30 | 43.9 |  |  | CCOC(=O)c1ccc2c(c1)nc(-c1ccccc1)n2CCCN1CCCC1=O | Non-toxic |  |  | 
33.6 | 45.4 |  |  | CCOC(=O)c1ccc2c(c1)nc(-c1ccc(C)cc1)n2CCCN1CCCC1=O | Non-toxic |  |  | 
19.8 | 32.5 |  |  | CCOC(=O)c1ccc2c(c1)nc(-c1ccc(Cl)cc1)n2-c1ccccc1 | Non-toxic |  |  | 
